Assay results from US8785499B2 (priority 2009, dated 2014).
Converted amounts (≈) assume the structure as drawn.

Assays:
[1] = system: E. coli K-12 BW25113 (ΔnadA); assay: microbe, parasite or virus in culture; type: cell-based, Escherichia coli; conditions: for MIC50: Escherichia coli, BW25113, read-out: MIC50 E. coli
ecNadD [2] = biological target: T1, ecNadD (Escherichia coli (strain K12), UniProt P0A752); assay: biochemical; conditions: apparent value
[3] = system: E. coli ΔnadA, nadD+ (overexpressing NadD); assay: Antibacterial assay: on-target versus off-target activity (NadD overexpression vs gapA control); type: cell-based, Escherichia coli; conditions: E. coli overexpressing nadD vs gapA control strain
B. anthracis sterne = assay: microbe, parasite or virus in culture; type: cell-based; conditions: Bacillus anthracis, read-out: MIC50 B. anth
B. subtilis 168 = assay: microbe, parasite or virus in culture; type: cell-based; conditions: Bacillus subtilis, 168, read-out: MIC50 B. subt
baNadD = baNadD (Bacillus anthracis, UniProt C3L5T6); assay: biochemical; type: biochemical; conditions: for inhibition at 50 µM: read-out: INHIBITION (%) B. anthracis
Chain of baNadD (C3L5T6 whole entry, looked up): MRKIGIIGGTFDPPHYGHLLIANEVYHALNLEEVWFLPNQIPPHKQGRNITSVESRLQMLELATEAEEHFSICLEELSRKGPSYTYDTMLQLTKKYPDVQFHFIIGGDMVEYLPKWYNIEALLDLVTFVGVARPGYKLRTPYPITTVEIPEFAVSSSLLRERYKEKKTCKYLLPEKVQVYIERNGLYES

ecNadD [4] = biological target: T1, ecNadD; assay: biochemical; type: biochemical

SMILES | MIC50 [1] | MIC50 (B. anthracis sterne) | MIC50 (B. subtilis 168) | […]. anthracis (baNadD) | […]. coli (ecNadD [4]) | other results
O=C(CCC(=O)Nc1cccc(Cl)c1)N/N=C/c1c2ccccc2cc2ccccc12 [01_02] | > 80 µM | – | – | – | – | Ki (ecNadD [2]; substrate ATP varied, 0.5 mM NaMN fixed): 5 ± 1 µM; Ki (ecNadD [2]; substrate NaMN varied, 0.5 mM ATP fixed): 8 ± 3 µM
O=C(CCCC(=O)Nc1ccc(Br)cc1)N/N=C/c1c2ccccc2cc2ccccc12 [01_03] | > 80 µM | 15 µM (≈ 7.33 µg/mL) | 10 µM (≈ 4.88 µg/mL) | – | – | effect of NadD overexpression on antibacterial activity (on-target vs off-target) [3]: partially or totally suppresses action
Nc1c(C(=O)Nc2cccc(F)c2)sc2nc(-c3cccs3)ccc12 [03_02] | 160 µM (≈ 59.1 µg/mL) | 80 µM (≈ 29.6 µg/mL) | 40 µM (≈ 14.8 µg/mL) | – | – | inhibition at 50 µM (baNadD): 100%
Nc1c(C(=O)Nc2cc(Cl)ccc2Cl)sc2nc(-c3cccs3)ccc12 [03_05] | 80 µM (≈ 33.6 µg/mL) | 10 µM (≈ 4.2 µg/mL) | 10 µM (≈ 4.2 µg/mL) | – | – | –
Nc1c(C(=O)Nc2ccc(Cl)cc2F)sc2nc(-c3cccs3)ccc12 [03_15] | 160 µM (≈ 64.6 µg/mL) | 10 µM (≈ 4.04 µg/mL) | 10 µM (≈ 4.04 µg/mL) | – | – | effect of NadD overexpression on antibacterial activity (on-target vs off-target) [3]: partially or totally suppresses action
Nc1c(C(=O)Nc2cccc(Cl)c2)sc2nc(-c3ccncc3)ccc12 [03_17] | 80 µM (≈ 30.5 µg/mL) | > 160 µM | > 160 µM | – | – | inhibition at 50 µM (baNadD): 64%
Nc1c(C(=O)Nc2ccc(F)cc2Cl)sc2nc(-c3ccc(F)cc3)ccc12 [03_23] | 40 µM (≈ 16.6 µg/mL) | 80 µM (≈ 33.3 µg/mL) | 80 µM (≈ 33.3 µg/mL) | – | – | antibacterial activity against E. coli (qualitative) [1]: relatively strong antibacterial activity
COC(=O)c1ccc(N/C=C2\C(=O)Nc3ccccc32)cc1 [15_11] | < 100 µM | – | < 50 µM | – | – | –
O=C(NCc1ccccn1)c1ccc(Cl)cc1Cl [compound 294] | – | – | – | 0% | 0% | –
COc1ccc(-c2noc(COc3ccc(Cl)cc3Cl)n2)cc1 [compound 295] | – | – | – | 11% | 0% | –
O=S(=O)(Nc1ccc(Cl)cc1)c1ccc(Cl)s1 [compound 297] | – | – | – | 0% | 0% | –
CCn1c(CNc2ccc(F)cc2)nnc1SCC(N)=O [compound 298] | – | – | – | 0% | 0% | –
COc1ccccc1OCc1nc(-c2ccc(Cl)cc2Cl)no1 [compound 299] | – | – | – | 1% | 0% | –
CC(=O)NS(=O)(=O)c1ccc(/N=C2\C(=O)Nc3ccccc32)cc1 [compound 300] | – | – | – | 0% | 0% | –
C=CCNC(=O)c1cc(-c2ccc(Br)cc2)on1 [compound 301] | – | – | – | 0% | 0% | –
O=C(CCN1C(=O)c2ccccc2C1=O)NCc1ccncc1 [compound 302] | – | – | – | 0% | 0% | –
Clc1ccc(CNc2nc[nH]n2)cc1 [compound 305] | – | – | – | 0% | 0% | –
CSc1cccc(NS(=O)(=O)c2ccc(Cl)cc2)c1 [compound 306] | – | – | – | 0% | 0% | –
O=S(=O)(NCCc1ccccc1)c1ccc(Br)s1 [compound 307] | – | – | – | 0% | 0% | –
